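1) Cells in 96-well plates. 2) Compound, 48 h, 5 concentrations. 3) Linear interpolation between surrounding doses. 4) Unreached endpoint = highest concentration. GI50 is the concentration that inhibits growth by half. TGI: total growth inhibition.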
Tests used:
Assay in all cases: NCI tumour cell line growth inhibition, 48 h
[1] = tested on: NCI-H460 lung
[2] = tested on: SF-295 CNS
[3] = tested on: SK-MEL-5 melanoma
[4] = tested on: UACC-62 melanoma
[5] = tested on: SN12C renal
[6] = tested on: HT29 colon
[7] = tested on: HOP-62 NSCLC
[8] = tested on: IGROV1 ovarian
[9] = tested on: HCT-15 colon
[10] = tested on: OVCAR-5 ovarian
[11] = tested on: SF-268 CNS
[12] = tested on: SNB-75 CNS
[13] = tested on: HCC-2998 colon
[14] = tested on: SK-MEL-28 melanoma
[15] = tested on: M14 melanoma
[16] = tested on: MDA-MB-231 breast
[17] = tested on: TK-10 renal
[18] = tested on: CCRF-CEM leukemia
[19] = tested on: DU-145 prostate
[20] = tested on: RXF 393 renal
[21] = tested on: MALME-3M melanoma
[22] = tested on: U251 CNS
[23] = tested on: NCI-H23 lung
[24] = tested on: SF-539 CNS
[25] = tested on: OVCAR-3 ovarian
[26] = tested on: CAKI-1 renal
[27] = tested on: UO-31 renal
[28] = tested on: RPMI-8226 leukemia
[29] = tested on: NCI/ADR-RES ovarian
[30] = tested on: T-47D breast
[31] = tested on: NCI-H226 lung
[32] = tested on: UACC-257 melanoma
[33] = tested on: A549 NSCLC
[34] = tested on: LOX IMVI melanoma
[35] = tested on: OVCAR-8 ovarian
[36] = tested on: MCF7 breast
[37] = tested on: EKVX NSCLC
[38] = tested on: HS 578T breast
[39] = tested on: 786-0 renal
[40] = tested on: HL-60(TB) leukemia
[41] = tested on: SNB-19 CNS
[42] = tested on: PC-3 prostate
[43] = tested on: A498 renal
[44] = tested on: MDA-MB-435
[45] = tested on: HOP-92 NSCLC

## O=C1C(Cl)=C(Nc2ccc(Nc3ccccc3)c(NC3=C(Cl)C(=O)c4ccccc4C3=O)c2)C(=O)c2ccccc21
[1]
  GI50: 3.35 µM
  TGI: 13 µM
[2]
  GI50: 3.79 µM
  TGI: 19.9 µM
[3]
  GI50: 13.1 µM
  TGI: 32 µM
[4]
  GI50: 3.46 µM
  TGI: 13.2 µM
[5]
  GI50: 2.97 µM
  TGI: 13.7 µM
[6]
  GI50: 16.1 µM
  TGI: > 100 µM
[7]
  GI50: 2.71 µM
  TGI: > 100 µM
[8]
  GI50: 15.9 µM
  TGI: 69.1 µM
[9]
  GI50: 3.46 µM
  TGI: > 100 µM
[10]
  GI50: 24 µM
  TGI: 66.8 µM
[11]
  GI50: 3.63 µM
  TGI: 18.8 µM
[12]
  GI50: 2.3 µM
  TGI: 6.97 µM
[13]
  GI50: 6.71 µM
  TGI: 41.2 µM
[14]
  GI50: 32.9 µM
  TGI: 96.5 µM
[15]
  GI50: 4.55 µM
  TGI: > 100 µM
[16]
  GI50: 1.27 µM
  TGI: 6.02 µM
[17]
  GI50: 2.62 µM
  TGI: 4.5 µM
[18]
  GI50: 3.71 µM
  TGI: > 100 µM
[19]
  GI50: 14.9 µM
  TGI: 28.4 µM
[20]
  GI50: 3.09 µM
  TGI: 14.2 µM
[21]
  GI50: 2.5 µM
  TGI: 5.71 µM
[22]
  GI50: 2.32 µM
  TGI: 7.22 µM
[23]
  GI50: 19.6 µM
  TGI: > 100 µM
[24]
  GI50: 3.43 µM
  TGI: 24.2 µM
[25]
  GI50: 1.69 µM
  TGI: 3.21 µM
[26]
  GI50: 5.36 µM
  TGI: 29 µM
[27]
  GI50: 1.35 µM
  TGI: 7.71 µM
[28]
  GI50: 3.33 µM
  TGI: > 100 µM
[29]
  GI50: 27.5 µM
  TGI: > 100 µM
[30]
  GI50: 1.95 µM
  TGI: 4.75 µM
[31]
  GI50: 16.7 µM
  TGI: 35.6 µM
[32]
  GI50: 6.12 µM
  TGI: 33.7 µM
[33]
  GI50: 8.25 µM
  TGI: > 100 µM
[34]
  GI50: 4.12 µM
  TGI: > 100 µM
[35]
  GI50: 4.08 µM
  TGI: > 100 µM
[36]
  GI50: 5.31 µM
  TGI: 44 µM
[37]
  GI50: 11.4 µM
  TGI: 96.4 µM
[38]
  GI50: 1.87 µM
  TGI: 6.36 µM
[39]
  GI50: 15.2 µM
  TGI: 46.5 µM
[40]
  GI50: 2.07 µM
  TGI: 4.65 µM
[41]
  GI50: 4.34 µM
  TGI: 59.4 µM
[42]
  GI50: 3.63 µM
  TGI: 24.8 µM
[43]
  GI50: 0.875 µM
  TGI: 14.4 µM
[44]
  GI50: 25 µM
  TGI: > 100 µM
[45]
  GI50: 0.0439 µM
  TGI: 3.27 µM
